Data as given in ChEMBL document CHEMBL3044772, “QSAR modeling of some substituted benzimidazole as Angotensin II AT1 receptor antagonist” (Med Chem Res, 2010).

Target: T1, Type-1 angiotensin II receptor (Bos taurus, UniProt P25104)
T1 sequence (P25104 whole entry): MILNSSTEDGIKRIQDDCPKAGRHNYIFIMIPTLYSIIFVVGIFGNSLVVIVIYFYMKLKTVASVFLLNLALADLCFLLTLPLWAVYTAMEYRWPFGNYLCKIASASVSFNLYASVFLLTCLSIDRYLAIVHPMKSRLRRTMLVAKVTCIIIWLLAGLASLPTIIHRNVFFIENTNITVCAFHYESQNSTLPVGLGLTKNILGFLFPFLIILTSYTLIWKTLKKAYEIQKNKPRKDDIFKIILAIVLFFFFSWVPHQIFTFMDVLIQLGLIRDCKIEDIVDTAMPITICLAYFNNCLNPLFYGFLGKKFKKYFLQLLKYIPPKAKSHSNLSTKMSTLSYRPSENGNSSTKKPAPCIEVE
Test: Displacement of [125I]angiotensin 2 from type-1 angiotensin 2 receptor in Bos taurus (bovine) adrenal cortical membrane

SMILES: CCCCc1nc2ccc(C)c(C(=O)OCC)c2n1Cc1ccc(-c2ccccc2-c2nnn[nH]2)cc1
- IC50 (read-out: IC50): 910 nM

SMILES: CCCCc1nc2cccc(COC)c2n1Cc1ccc(-c2ccccc2-c2nn[nH]n2)cc1
- IC50 (read-out: IC50): 600 nM

SMILES: CCCCc1nc2cccc(CN(C)C)c2n1Cc1ccc(-c2ccccc2-c2nn[nH]n2)cc1
- IC50 (read-out: IC50): 2400 nM

SMILES: CCCCc1nc2ccc(C)c(C(=O)O)c2n1Cc1ccc(-c2ccccc2-c2nn[nH]n2)cc1
- IC50 (read-out: IC50): 340 nM
- IC50 (read-out: pIC50 (converted)): 328 nM

SMILES: CCCCc1nc2cccc(C(=O)OC)c2n1Cc1ccc(-c2ccccc2-c2nn[nH]n2)cc1
- IC50 (read-out: IC50): 320 nM

SMILES: CCCCc1nc2cc(C(=O)OC)ccc2n1Cc1ccc(-c2ccccc2-c2nn[nH]n2)cc1
- IC50 (read-out: IC50): 740 nM

SMILES: CCCCc1nc2ccc(OC)cc2n1Cc1ccc(-c2ccccc2-c2nn[nH]n2)cc1
- IC50 (read-out: IC50): 1100 nM

SMILES: CCCCc1nc2cc(Cl)ccc2n1Cc1ccc(-c2ccccc2-c2nn[nH]n2)cc1
- IC50 (read-out: IC50): 1500 nM

SMILES: CCCCc1nc2cccc(CC(=O)O)c2n1Cc1ccc(-c2ccccc2-c2nn[nH]n2)cc1
- IC50 (read-out: IC50): 2600 nM
- IC50 (read-out: pIC50 (converted)): 2820 nM

SMILES: CCCCc1nc2cccc(CC(=O)OCC)c2n1Cc1ccc(-c2ccccc2-c2nn[nH]n2)cc1
- IC50 (read-out: IC50): 250 nM

SMILES: CCCCc1nc2cc(Cl)cc(C(=O)OC)c2n1Cc1ccc(-c2ccccc2-c2nn[nH]n2)cc1
- IC50 (read-out: IC50): 440 nM

SMILES: CCCCc1nc2cccc(C(=O)OCC)c2n1Cc1ccc(-c2ccccc2-c2nn[nH]n2)cc1
- IC50 (read-out: IC50): 1400 nM

SMILES: CCCCc1nc2cccc(C(=O)O)c2n1Cc1ccc(-c2ccccc2C(=O)O)cc1
- IC50 (read-out: IC50): 660 nM

SMILES: CCCCc1nc2ccc(Cl)cc2n1Cc1ccc(-c2ccccc2-c2nn[nH]n2)cc1
- IC50 (read-out: IC50): 3100 nM

SMILES: CCCCOC(=O)c1cccc2nc(CCCC)n(Cc3ccc(-c4ccccc4-c4nn[nH]n4)cc3)c12
- IC50 (read-out: IC50): 1200 nM
- IC50 (read-out: pIC50 (converted)): 1300 nM

SMILES: CCCCc1nc2cccc(C)c2n1Cc1ccc(-c2ccccc2-c2nn[nH]n2)cc1
- IC50 (read-out: IC50): 330 nM

SMILES: CCCCc1nc2cc(C(=O)O)ccc2n1Cc1ccc(-c2ccccc2-c2nn[nH]n2)cc1
- IC50 (read-out: IC50): 5500 nM
- IC50 (read-out: pIC50 (converted)): 5620 nM

SMILES: CCCCc1nc2cccc(C(=O)NC(C)C)c2n1Cc1ccc(-c2ccccc2-c2nn[nH]n2)cc1
- IC50 (read-out: IC50): 540 nM

SMILES: CCCCc1nc2cc(OC)ccc2n1Cc1ccc(-c2ccccc2-c2nn[nH]n2)cc1
- IC50 (read-out: IC50): 910 nM

SMILES: CCCCc1nc2cccc(O)c2n1Cc1ccc(-c2ccccc2-c2nn[nH]n2)cc1
- IC50 (read-out: IC50): 1100 nM

SMILES: CCCCc1nc2ccc(C(=O)OC)cc2n1Cc1ccc(-c2ccccc2-c2nn[nH]n2)cc1
- IC50 (read-out: IC50): 440 nM

SMILES: CCCCc1nc2cccc(OC)c2n1Cc1ccc(-c2ccccc2-c2nn[nH]n2)cc1
- IC50 (read-out: IC50): 2800 nM

SMILES: CCCCc1nc2c(C(=O)OC)cccc2n1Cc1ccc(-c2ccccc2-c2nn[nH]n2)cc1
- IC50 (read-out: IC50): 7200 nM

SMILES: CCCCc1nc2cccc(C(=O)O)c2n1Cc1ccc(-c2ccccc2-c2nnnn2C)cc1
- IC50 (read-out: IC50): 3400 nM

SMILES: CCCCc1nc2cccc(CO)c2n1Cc1ccc(-c2ccccc2-c2nn[nH]n2)cc1
- IC50 (read-out: IC50): 450 nM

SMILES: CCCCc1nc2ccc(C(=O)O)cc2n1Cc1ccc(-c2ccccc2-c2nn[nH]n2)cc1
- IC50 (read-out: IC50): 9000 nM

SMILES: CCCCc1nc2cc(C)cc(C(=O)O)c2n1Cc1ccc(-c2ccccc2-c2nn[nH]n2)cc1
- IC50 (read-out: IC50): 1300 nM

SMILES: CCCCc1nc2cc(C)cc(C(=O)OC)c2n1Cc1ccc(-c2ccccc2-c2nn[nH]n2)cc1
- IC50 (read-out: IC50): 870 nM

SMILES: CCCCc1nc2ccccc2n1Cc1ccc(-c2ccccc2C(=O)O)cc1
- IC50 (read-out: IC50): 1100 nM
- IC50 (read-out: pIC50 (converted)): 110 nM

SMILES: CCCCc1nc2ccccc2n1Cc1ccc(-c2ccccc2-c2nn[nH]n2)cc1
- IC50 (read-out: IC50): 900 nM
